The source of these data is ChEMBL document CHEMBL2150898, “Discovery of AM-1638: A Potent and Orally Bioavailable GPR40/FFA1 Full Agonist” (ACS Med Chem Lett, 2012).

Active and inactive are the calls of the source. No cut-off for these calls is given here. A value given as a limit tells only on which side of the number the result lay.

One may read the EC50 as the concentration at which the effect is half-maximal. In general, bioavailability refers to the share of a dose that reaches the circulation, judged against a reference dose that is usually intravenous. By Tmax is commonly meant the time from dosing to the highest level. The half-life is how long it takes for the measured level to halve. For orientation: Cmax means the peak of the concentration-time curve.

Data set [1] concerns the target T1, Free fatty acid receptor 1 (Homo sapiens, UniProt O14842). Description: Agonist activity at GPR40 expressed in CHO cells assessed as intrinsic efficacy after 20 seconds by aequorin bioluminescence assay in presence of 0.1 % human serum relative to AM-1638. Format: functional, cell-based.
For data set [2], the target named is T1, Free fatty acid receptor 1. Description: Agonist activity at GPR40 expressed in CHO cells after 20 seconds by aequorin bioluminescence assay in presence of 0.1 % human serum. It is filed as functional, cell-based.
The target of data set [3] is T1, Free fatty acid receptor 1. In words: Agonist activity at GPR40 expressed in CHO cells after 20 seconds by aequorin bioluminescence assay in presence of 100 % human serum. Format: functional, cell-based.
Data set [4] in a line: Oral bioavailability in mouse at 5 mg/kg. Format: ADME, organism-based. To be noted: in vivo.
Data set [5] can be described thus: Tmax in cynomolgus monkey at 2 mg/kg, po and 0.5 mg/kg, iv. It is filed as ADME, organism-based, Macaca fascicularis. To be noted: in vivo.
Data set [6] can be described thus: Clearance in mouse at 5 mg/kg, po and 1 mg/kg, iv. The note with it: in vivo. Format: ADME, organism-based.
A short description of data set [7]: Half life in mouse at 1 mg/kg, iv. Format: ADME, organism-based. Further details: dose 1 mg/kg, route intravenous. The note with it: in vivo.
Data set [8] in a line: Half life in rat at 0.5 mg/kg, iv. To be noted: in vivo. It is filed as ADME, organism-based. Further details: dose 0.5 mg/kg, route intravenous.
Data set [9] can be described thus: Oral bioavailability in cynomolgus monkey at 2 mg/kg. To be noted: in vivo. It is filed as ADME, organism-based, Macaca fascicularis.
Data set [10] in a line: Tmax in rat at 2 mg/kg, po and 0.5 mg/kg, iv. It is filed as ADME, organism-based. To be noted: in vivo.
The subject of data set [11] is Mus musculus. In words: Antidiabetic activity in DIO BDF mouse model assessed as improvement in glucose-challenge AUC(0 to 60 mins) at 60 mg/kg, po administered 1 hr prior glucose-challenge challenge measured after 1 hr by OGTT. Format: functional.
Data set [12] in a line: Cmax in cynomolgus monkey at 2 mg/kg, po. Format: ADME, organism-based, Macaca fascicularis. To be noted: in vivo. Further details: dose 2 mg/kg, route oral.
Data set [13] is described as follows: Cmax in mouse at 5 mg/kg, po. It is filed as ADME, organism-based. The note with it: in vivo. Further details: dose 5 mg/kg, route oral.
Data set [14] in a line: Cmax in rat at 2 mg/kg, po. It is filed as ADME, organism-based. The arrangement: dose 2 mg/kg, route oral. To be noted: in vivo.
A short description of data set [15]: Half life in cynomolgus monkey at 0.5 mg/kg, iv. Format: ADME, organism-based, Macaca fascicularis. The arrangement: dose 0.5 mg/kg, route intravenous. To be noted: in vivo.
Data set [16] in a line: Clearance in rat at 2 mg/kg, po and 0.5 mg/kg, iv. To be noted: in vivo. Format: ADME, organism-based.
The nature of data set [17]: Clearance in cynomolgus monkey at 2 mg/kg, po and 0.5 mg/kg, iv. It is filed as ADME, organism-based, Macaca fascicularis. To be noted: in vivo.
Data set [18] concerns Mus musculus. In words: Antidiabetic activity in DIO BDF mouse model assessed as reduction in blood glucose-challenge excursion at 60 mg/kg, po administered 1 hr prior glucose-challenge challenge measured after 1 hr by OGTT ( Rvb = 462 mg/dl ). Format: functional.
A short description of data set [19]: Oral bioavailability in rat at 2 mg/kg. It is filed as ADME, organism-based. To be noted: in vivo.
Data set [20] relates to Mus musculus. Description: Antidiabetic activity in DIO BDF mouse model assessed as increase in insulin AUC at 60 mg/kg, po administered 1 hr prior glucose-challenge challenge measured after 1 hr by ELISA. Further details: dose 60 mg/kg. It is filed as functional, organism-based. A general note: ELISA stands for enzyme-linked immunosorbent assay.
The test system of data set [21] is Mus musculus. In words: Antidiabetic activity in DIO BDF mouse model assessed as increase in plasma insulin level at 60 mg/kg, po administered 1 hr prior glucose-challenge challenge measured after 1 hr by ELISA. Format: functional, organism-based. The arrangement: dose 60 mg/kg.
A short description of data set [22]: Tmax in mouse at 5 mg/kg, po and 1 mg/kg, iv. It is filed as ADME, organism-based. The note with it: in vivo.

T1 sequence (O14842 whole entry): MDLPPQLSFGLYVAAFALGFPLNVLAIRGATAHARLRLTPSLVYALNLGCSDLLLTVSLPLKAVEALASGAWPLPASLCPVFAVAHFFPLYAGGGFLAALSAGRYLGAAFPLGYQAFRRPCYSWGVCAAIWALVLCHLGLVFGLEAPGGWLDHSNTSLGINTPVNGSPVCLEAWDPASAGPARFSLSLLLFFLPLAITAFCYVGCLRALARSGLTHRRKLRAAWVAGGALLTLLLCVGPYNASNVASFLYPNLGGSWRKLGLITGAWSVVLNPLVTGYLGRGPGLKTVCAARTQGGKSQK

Regarding `CC[C@H](CC(=O)O)c1cccc(OCc2ccc(-c3cc(OC)ccc3F)c(C(C)(C)C)c2)c1`, the Efficacy in [1] turned out to be 110%. The EC50 in data set [2] came out at 680 nM.

For the compound `COc1ccc(F)c(-c2ccc(COc3cccc([C@@H](CC(=O)O)C(F)(F)F)c3)cc2C(C)(C)C)c1`, the Efficacy in [1] was 111%. In addition, the EC50 in data set [2] is 2100 nM.

In the case of `CC#CC(CC(=O)O)c1ccc(OCc2ccc(-c3ccccc3)cc2)cc1` (racemic), the Efficacy in data set [1] is 105%. Moreover, the EC50 in [2] worked out at 7700 nM.

For `COc1ccc(F)c(-c2ccc(COc3cccc([C@@H](CC(=O)O)c4ccccc4)c3)cc2C(C)(C)C)c1`, the Efficacy in data set [1] is 80%. The EC50 in data set [2] was determined as 1200 nM.

In the case of `COc1ccc(F)c(-c2ccc(COc3cccc([C@H](CC(=O)O)C4CC4)c3)cc2C2=CCCC2(C)C)c1`, in [1], the Efficacy was 76%. Besides, the EC50 worked out at 34000 nM in [3] and 1100 nM in [2].

Regarding `COc1ccc(F)c(-c2ccc(COc3cccc([C@@H](CC(=O)O)C4CC4)c3)cc2C2=CCCC2(C)C)c1`, the bioavailability is above 100% in data set [4], 71% in [9] and 72% in data set [19]. Also, the Tmax in data set [5] stood at 2 h; in data set [10], 3.5 h; in data set [22], 1 h. Also, the figures for the clearance in data set [6], in data set [16] and in data set [17] were 3 mL/min/kg, 15.2 mL/min/kg and 13.5 mL/min/kg, respectively. For the same compound, the half-life in data set [7] was 2 h; in data set [8], 1.8 h; in [15], 2.1 h. Also, the results for the Activity in the data set with Mus musculus [11] and in the data set on Mus musculus [18] were 46% and 204 mg/dL, respectively. The Cmax amounted to 5.1 µM in data set [12], 14 µM in data set [13] and 3.6 µM in data set [14]. Besides, in [3], the EC50 came to 710 nM. The result with Mus musculus [20] and with Mus musculus [21] was Active.

On to `COc1ccc(F)c(-c2ccc(COc3cccc([C@@H](CC(=O)O)C4CC4)c3)cc2)c1`, for which the Efficacy in [1] amounted to 107%. The half-maximal effective concentration (EC50) turned out to be 38000 nM in [3] and 480 nM in [2].

On to `CC#C[C@@H](CC(=O)O)c1ccc(OCc2cccc(-c3ccc(C(F)(F)F)cc3)c2)cc1`, for which the Activity was 34% in the data set on Mus musculus [11] and 317 mg/dL with Mus musculus [18]. Also, the result in the data set with Mus musculus [21] was inactive.

With `COc1ccc(F)c(-c2ccc(COc3cccc([C@@H](CC(=O)O)C4CC4)c3)cc2C(C)(C)C)c1`, the Efficacy in data set [1] turned out to be 103%. Further, the EC50 in data set [3] is 1900 nM; in data set [2], 370 nM.

As for `COc1ccc(F)c(-c2ccc(COc3cccc([C@@H](CC(=O)O)C4CCCC4)c3)cc2C(C)(C)C)c1`, the Efficacy in data set [1] was found to be 59%. The EC50 in [2] was 1310 nM.

On to `CC#CC(CC(=O)O)c1ccc(OCc2ccc(-c3cccc(OC)c3)cc2)cc1` (racemic), for which, in data set [1], the Efficacy was 98%. For the same compound, the EC50 in data set [2] was 2300 nM.

In the case of `CCC[C@H](CC(=O)O)c1cccc(OCc2ccc(-c3cc(OC)ccc3F)c(C(C)(C)C)c2)c1`, the Efficacy in [1] was 94%. Also, in data set [2], the EC50 stood at 690 nM.

Consider `CC#C[C@H](CC(=O)O)c1ccc(OCc2ccc(-c3cccc(OC)c3)cc2)cc1`, for which the Efficacy in data set [1] was 99%. In addition, the EC50 in data set [2] was determined as 4000 nM.

In the case of `COc1ccc(F)c(-c2ccc(COc3cccc([C@@H](CC(=O)O)C(C)C)c3)cc2C(C)(C)C)c1`, in [1], the Efficacy was determined as 86%. Also, in [2], the EC50 was 2200 nM.

`COc1ccc(F)c(-c2ccc(COc3cccc([C@@H](CC(=O)O)C4CCC4)c3)cc2C(C)(C)C)c1`: the Efficacy in data set [1] amounted to 106%. Besides, the 50% effective concentration (EC50) in data set [2] is 420 nM.

On to `COc1ccc(F)c(-c2ccc(COc3ccc(CCC(=O)O)cc3)cc2)c1`, for which, in [1], the Efficacy stood at 96%. For the same compound, the EC50 in data set [2] was determined as 1900 nM.

For `COc1ccc(F)c(-c2ccc(COc3cccc(CCC(=O)O)c3)cc2C(C)(C)C)c1`, in data set [1], the Efficacy came to 100%. In data set [2], the EC50 came out at 900 nM.

As for `CC/C=C\C/C=C\C/C=C\C/C=C\C/C=C\C/C=C\CCC(=O)O` [DOCONEXENT], in data set [1], the Efficacy came out at 67%. For the same compound, the concentration for a half-maximal effect (EC50) in data set [2] amounted to 36000 nM.

Consider `COc1ccc(F)c(-c2ccc(COc3cccc(CCC(=O)O)c3)cc2)c1`, for which the Efficacy in data set [1] turned out to be 104%. In [2], the half-maximal effective concentration (EC50) was 1200 nM.

For the compound `COc1ccc(F)c(-c2ccc(COc3cccc([C@@H](CC(=O)O)C4CCCCC4)c3)cc2C(C)(C)C)c1`, in data set [1], the Efficacy stood at 41%. The EC50 in data set [2] worked out at 2100 nM.

As for `COc1ccc(F)c(-c2ccc(COc3cccc([C@H](C)CC(=O)O)c3)cc2C(C)(C)C)c1`, in data set [1], the Efficacy turned out to be 107%. Besides, the concentration for a half-maximal effect (EC50) in [2] amounted to 770 nM.

Take `CC#C[C@H](CC(=O)O)c1ccc(OCc2ccc(-c3cc(OC)ccc3F)cc2)cc1`: the Efficacy in [1] was 97%. In addition, in data set [2], the concentration giving a half-maximal response (EC50) was 2300 nM.

In the case of `CC#C[C@@H](CC(=O)O)c1ccc(OCc2ccc(-c3cccc(OC)c3)cc2)cc1`, the Efficacy in data set [1] was determined as 47%. The EC50 in [2] amounted to 650 nM.
